Assay results published in patent US8299083B2, “PDE5 inhibitor compositions and methods for treating cardiac indications” (The Johns Hopkins University, priority 2004, dated 2012).

How the values were obtained:
STAT3 = test: IL-6 induced STAT3 activation in neonatal rat myocytes; type: cell-based; conditions: sildenafil 1 μM
Description: Myocardial tissue extract was electrophoresed in SDS-New Page gel, and probed for both tyrosine phosphorylated (Tyr705) and total Stat3. In additional studies, rat neonatal myocytes were cultured, then exposed to interleukin 6 (IL-6, Cell Signaling, 100 ng/ml) for one hour. […] In other studies, cells were pre-transfected (Lipofectamine™, Invitrogen) with mixed oligonucleotide silencing RNAs for STAT3 (siRNA, SmarTTpool Stat3). Protein extracts were obtained from myocyte extracts after the 1 hour incubation period, and probed for phosphorylated and total protein levels of Stat1 (Tyr701) and Stat3 (Tyr705) (Cell Signaling Inc.). siRNA was transfected into neonatal myocytes.

NOS3 = NOS3 dimer/monomer Western blot in TAC hearts; type: in vivo, mouse; conditions: 3 weeks TAC
NFAT = NFAT promoter activation in neonatal rat myocytes (β-galactosidase / luciferase reporter); type: cell-based; conditions: stimulated by PE or BayK8644, 1 μM sildenafil
Description: Rat neonatal cardiac myocytes were isolated from 1- to 2-day-old Sprague-Dawley rats as described^50. […] Sigma Chemical (St. […] To assess NFAT activation, cells were transfected with adenovirus expressing the three NFAT-binding sites linked to β-galactosidase ([…]), using previously described methods^72. Additional studies were performed using an alternative reporter adenovirus encoding luciferase driven by the NFAT promoter. This was performed twenty-four hours prior to PE, BayK8644, or activated calcineurin stimulation. The latter was achieved by a co-transfection with a replication-deficient adenovirus encoding a Ca^2+-independent, constitutively active, truncated mouse calcineurin […]^72). […] After an additional forty-eight hours, NFAT activation was assessed by β-galactosidase histology/activity or luciferase activity. […] Luciferase activity was assayed by commercial kit (Stratagene, La Jolla, Calif.) and read on a plate luminometer.

[1] = system: neonatal rat cardiac myocytes; test: Phenylephrine-induced hypertrophy of neonatal rat cardiomyocytes (sarcomere organization, 3H-leucine incorporation); type: cell-based; conditions: phenylephrine 1 μM, sildenafil 100 nM or 1 μM
[2] = system: total cGMP-esterase activity; test: cGMP-esterase (low Km cGMP phosphodiesterase) activity of heart and isolated myocytes; type: biochemical, mouse
Akt = Akt activation in TAC hearts (Western blot, activity assay); type: in vivo, mouse; conditions: 1 and 9 week TAC
Description: (§1) Protein was prepared from snap-frozen heart tissue using extraction buffer as described previously^90. Antibodies included calcineurin (1:2000 dilution, BD Transduction Laboratories (San Diego, Calif.), GSK3β, Ser9-phospho-GSK313, Akt, Ser473-phospho-Akt, ERK, Thr202/Thr204-phospho-ERK (1:1000 dilution, Cell Signaling Technology, Beverly, Mass.). Primary antibody binding was visualized by horse radish peroxidase-conjugated secondary antibodies and enhanced chemiluminescence (Pierce, Rockford, Ill.).
PI3Kα activity was assessed by Elisa assay following immunoprecipitation of PI3K (Seize X IP Kit, Pierce) using a p85α monoclonal antibody (Cell Signaling), with activity measured by fluorescence polarization (Molecular Devices, Perkin-Elmer Victor 3 plate reader). Akt activity (IP with s473-pAkt Ab, GSK-3 fusion protein substrate) was performed using a commercial kit (Cell Signaling Technology, Beverly, Mass.). PKG-1 activity was assayed by calorimetric analysis, CycLex (Clinisciences, Montrouge, FR) from whole heart lysates.

[3] = system: C57BL/6 mice, pressure overload by transverse aortic constriction; test: In vivo cardiac hemodynamics by pressure-volume analysis, TAC mice; set-up: species or system mouse
Description: Pressure overload was produced by transverse aortic constriction.
Transthoracic two-dimensional guided M-mode echocardiography was performed in non-anesthetized mice. Measurements were done using an echocardiography system, the SEQUOIA C256 (Siemens, Munich, Del.) with the 15 MHz linear-array transducer. Intact heart hemodynamic analysis was performed as described^90. These studies employed a four-electrode pressure-volume catheter (model SPR-839, Millar Instruments) placed through the left ventricular apex in the open chest anesthetized animal and positioned along the longitudinal axis to record chamber volume by impedance and pressure by micromanometry.
All hemodynamic data were recorded using custom developed software, digitizing signals at 2 KHz. End-diastolic and end-systolic volumes were the average of volumes measured during isovolumic contraction and relaxation, respectively. ESP was the pressure at maximal chamber elastance (P/V ratio)^1. EDP was the diastolic pressure at the lower right hand corner of the pressure-volume loop. Cardiac output was determined from a perivascular flow probe (Transonics, Ithica, N.Y.) placed around the thoracic aorta. Ea was equal to the ratio of end-systolic pressure divided by stroke volume. The volume catheter signal was calibrated for both gain and offset. Gain was determined by setting the catheter-derived cardiac output (equal to pressure-volume loop width times heart rate) to that obtained from the calibrated flow probe value. Offset was determined using the hypertonic saline method Ventricular power was equal to the instantaneous product of pressure times flow, and the peak power was divided by EDV to obtain the power index PMXI^79. […] The slope of this relation Ees was normalized by heart mass and expressed per gm heart mass. Msw was derived from the linear relation between stroke work and EDV from the same set of variably loaded cardiac cycles used to derive Eesn, and is another load-independent assessment of systolic contractile function^4. Tau was obtained from the model: P=Po+ae^−t/□ . . . fitting data during isovolumic relaxation. dP/dt was derived from a digital filter (5-point weighted slope). PFR/EDV was derived from the maximal first derivative of the volume signal during early diastole, divided by EDV.

GSK3β = GSK3β phosphorylation in TAC hearts (Western blot); type: in vivo, mouse
Description: as §1

NFAT promoter activation (NFAT): suppressed activation | proportion of total cGMP-esterase activity attributable to PDE5 ([2]; 3 week TAC hearts): ~60% | PDE5A-dependent cGMP-esterase activity by radio-enzyme assay ([2]; NTG, n=9): 32±17.3% | percent of total cGMP-esterase activity blocked by co-incubation ([2]; sham control hearts (baseline)): approximately 30%
SMILES: CCCc1nn(C)c2c(=O)[nH]c(-c3cc(S(=O)(=O)N4CCN(C)CC4)ccc3OCC)nc12 [sildenafil]
IL-6 induced STAT activation (STAT3): prevented the STAT activation | NOS3 dimer (280 kD) level (NOS3): prevented the loss of NOS dimer | PE-induced cellular hypertrophy (sarcomere organization, protein synthesis) [1]: suppressed | TAC-increased Akt activity (Akt): suppressed this response at both time points to near baseline | CO (cardiac output) ([3]; 3 wk TAC + Delay (2 wk) Sil): 10.7 ± 0.5 mL/min | EDP (LV end-diastolic pressure) ([3]; 3 wk TAC + Delay (2 wk) Sil): 7.5 ± 0.6 mmHg | EDV (LV end-diastolic volume) ([3]; 3 wk TAC + Delay (2 wk) Sil): 29.4 ± 2.0 µL | EF (ejection fraction) ([3]; 3 wk TAC + Delay (2 wk) Sil): 64.0 ± 4.7% | ESP (LV end-systolic pressure) ([3]; 3 wk TAC + Delay (2 wk) Sil): 184.0 ± 9.1 (b) mmHg | ESV (LV end-systolic volume) ([3]; 3 wk TAC + Delay (2 wk) Sil): 10.9 ± 2.1 µL | Ea (effective arterial elastance) ([3]; 3 wk TAC + Delay (2 wk) Sil): 9.9 ± 0.6 (b) mmHg/μL | Eesn (end-systolic elastance normalized to heart mass) ([3]; 3 wk TAC + Delay (2 wk) Sil): 111.0 ± 31.4 mmHg/μL/g | HR (heart rate) ([3]; 3 wk TAC + Delay (2 wk) Sil): 574.6 ± 21.7 MIN^− | Msw (preload recruitable stroke work) ([3]; 3 wk TAC + Delay (2 wk) Sil): 171.3 ± 27.6 (i) mmHg | PFR/EDV (peak diastolic filling rate normalized to EDV) ([3]; 3 wk TAC + Delay (2 wk) Sil): 30.6 ± 3.6 s⁻¹ | Tau (time constant of pressure relaxation) ([3]; 3 wk TAC + Delay (2 wk) Sil): 7.5 ± 0.3 M·s | dP/dtmax (maximal rate of pressure rise) ([3]; 3 wk TAC + Delay (2 wk) Sil): 14879 ± 898 mmHg/s | dP/dtmin (peak rate of LV pressure decline) ([3]; 3 wk TAC + Delay (2 wk) Sil): −14325 ± 445 (j) mmHg/s | dP/dtmx/IP (dP/dtmax normalized to instantaneous developed pressure) ([3]; 3 wk TAC + Delay (2 wk) Sil): 209.4 ± 11.1 s⁻¹ | CO (cardiac output) ([3]; 3 wk TAC + Sil): 9.4 ± 0.5 mL/min | EDP (LV end-diastolic pressure) ([3]; 3 wk TAC + Sil): 7.6 ± 1.4 mmHg | EDV (LV end-diastolic volume) ([3]; 3 wk TAC + Sil): 22.2 ± 1.5 µL | EF (ejection fraction) ([3]; 3 wk TAC + Sil): 72.6 ± 5.7% | ESP (LV end-systolic pressure) ([3]; 3 wk TAC + Sil): 163.6 ± 5.6 (b) mmHg | ESV (LV end-systolic volume) ([3]; 3 wk TAC + Sil): 6.4 ± 1.7 µL | Ea (effective arterial elastance) ([3]; 3 wk TAC + Sil): 10.5 ± 0.8 (b) mmHg/μL | Eesn (end-systolic elastance normalized to heart mass) ([3]; 3 wk TAC + Sil): 133.0 ± 25.1 (i) mmHg/μL/g | HR (heart rate) ([3]; 3 wk TAC + Sil): 598.8 ± 23.8 MIN^− | Msw (preload recruitable stroke work) ([3]; 3 wk TAC + Sil): 162.5 ± 10.5 (i) mmHg | PFR/EDV (peak diastolic filling rate normalized to EDV) ([3]; 3 wk TAC + Sil): 43.1 ± 4.9 (k) sec^−1 | Tau (time constant of pressure relaxation) ([3]; 3 wk TAC + Sil): 6.3 ± 0.4 M·s | dP/dtmax (maximal rate of pressure rise) ([3]; 3 wk TAC + Sil): 18638 ± 1379 (f) mmHg/s | dP/dtmin (peak rate of LV pressure decline) ([3]; 3 wk TAC + Sil): −16758 ± 917 (f) mmHg/s | dP/dtmx/IP (dP/dtmax normalized to instantaneous developed pressure) ([3]; 3 wk TAC + Sil): 256.5 ± 8.4 g/s | CO (cardiac output) ([3]; Sildenafil 3 wk, no TAC): 11.1 ± 1.1 mL/min | EDP (LV end-diastolic pressure) ([3]; Sildenafil 3 wk, no TAC): 6.5 ± 1.0 mmHg | EDV (LV end-diastolic volume) ([3]; Sildenafil 3 wk, no TAC): 32.8 ± 2.3 µL | EF (ejection fraction) ([3]; Sildenafil 3 wk, no TAC): 61.4 ± 6.1% | ESP (LV end-systolic pressure) ([3]; Sildenafil 3 wk, no TAC): 101.5 ± 2.6 mmHg | ESV (LV end-systolic volume) ([3]; Sildenafil 3 wk, no TAC): 13.0 ± 2.7 µL | Ea (effective arterial elastance) ([3]; Sildenafil 3 wk, no TAC): 5.3 ± 0.5 mmHg/μL | Eesn (end-systolic elastance normalized to heart mass) ([3]; Sildenafil 3 wk, no TAC): 47.6 ± 5.8 mmHg/μL/g | HR (heart rate) ([3]; Sildenafil 3 wk, no TAC): 558.5 ± 22.9 MIN^− | Msw (preload recruitable stroke work) ([3]; Sildenafil 3 wk, no TAC): 84.0 ± 5.7 mmHg | PFR/EDV (peak diastolic filling rate normalized to EDV) ([3]; Sildenafil 3 wk, no TAC): 34.1 ± 1.9 s⁻¹ | Tau (time constant of pressure relaxation) ([3]; Sildenafil 3 wk, no TAC): 7.6 ± 0.4 M·s | dP/dtmax (maximal rate of pressure rise) ([3]; Sildenafil 3 wk, no TAC): 11843 ± 681 mmHg/s | dP/dtmin (peak rate of LV pressure decline) ([3]; Sildenafil 3 wk, no TAC): −10689 ± 399 mmHg/s | dP/dtmx/IP (dP/dtmax normalized to instantaneous developed pressure) ([3]; Sildenafil 3 wk, no TAC): 183.7 ± 6.9 s⁻¹ | GSK3β activation (GSK3β; 1-week TAC): remained unchanged | Akt and GSK3β activation (GSK3β; 9-weeks TAC): reduced both
